Results published in article PMC5974752, “Bax/Tubulin/Epithelial-Mesenchymal Pathways Determine the Efficacy of Silybin Analog HM015k in Colorectal Cancer Cell Growth and Metastasis” (Frontiers in Pharmacology, 2018).
Like-named read-outs stand apart in the source and are kept apart here.

Experiments:
HCT116 cells = test: Colony formation assay; assay type: cell-based, human; conditions: 2 and 4 μM, 12 h incubation, colonies 10–14 days, vs vehicle control
Protocol: In this assay, HCT116 cells were seeded in 6 well plates at a density of 250,000 cells/plate and allowed to grow overnight. Compounds 15j and 15k (0, 2 or 4 μM) were added the following day. After 12 h of incubation, the medium was discarded and cells were trypsinized with 0.25% trypsin, 2.21 mM EDTA, 1X, harvested, counted and reseeded in 6 well plates at a low density (500 cell/well). The cells were allowed to form colonies for 10–14 days at 37°C, with the medium being changed every other day. Subsequently, methanol was used to fix the colonies formed in each plate, followed by dyeing the colonies with 0.1% crystal violet dye for 30 min. Finally, colonies were viewed and counted under an EVOS microscope (Themo Fisher Scientific, Wayne, MI, USA). The colony formation rate equation was applied for each compound: Colony formation rate = number of colonies/number of seeded cells × 100 %.

PARP = test: Western blot in HCT116 cells (nuclear fraction); assay type: cell-based, human; conditions: 4 μM, vs control
Protocol: (§1) HCT116 cells were lysed to obtain cytoplasmic and nuclear protein fractions, according to the protocol used in previous publications (Alhadidi and Shah, [2017]). Briefly, the cells were seeded in and incubated with 15k for overnight at 4μM. The cells were washed using ice-cold PBS and scraped using a cell scraper and collected in 15ml tubes. The cells were centrifuged and the PBS was discarded and replaced with 400 μl of buffer A (10 mM HEPES, pH 7.9, 0.1 mM EDTA, 0.1 mM EGTA, 10 mM KCl, 1 mM dithiothreitol, and 0.5 mM phenylmethylsulfonyl fluoride) in each tube. The cells were allowed to swell under in the buffer for 15 min on ice. Subsequently, 0.1% Nonidet P-40 was added to each suspension for 1 min to disturb the plasma membrane. The nuclei were precipitated by centrifugation at 13,000 rpm for 1 min at 4°C. The cytoplasmic proteins were collected in the supernatant and stored at −80°C. Two hundred μl of Buffer B (20 mM HEPES, pH 7.9, 1 mM EDTA, 1 mM EGTA, 400 mM NaCl, 1 mM dithiothreitol, and 1 mM phenylmethylsulfonyl fluoride) was added to the pellets and left for 30 min on ice with periodic mixing. […] The bicinchoninic acid (BCA) quantification assay was used to determine the concentration of protein in the cell extracts. […] Finally, proteins were quantified using the image J software. Data were calculated as ratios to β-actin.

β-catenin = test: Western blot in HCT116 cells (nuclear); assay type: cell-based, human; conditions: 4 μM, p < 0.001 vs control
Protocol: as §1

LOVO cells = test: Wound healing assay; assay type: cell-based, human; conditions: 2 and 4 μM, 24 h and 48 h, vs vehicle
Protocol: In brief, the metastatic CRC cells (LOVO) were seeded in 6 well plates and allowed to grow as a monolayer until they reached 100% confluence. Upon confluence, 200 μl sterile tips were used to create a wound by gentle scratching of the complete cell monolayer. Sterile PBS was used to wash the cells several times to remove any floating cells. Different concentrations of the test compound were prepared in the culture media and added immediately after wound formation. The closure of the wound was observed by taking pictures at different time points by an EVOS microscope. Finally, the area of the wounds at different time points was calculated using Image J software (NIH, Bethesda, Maryland, USA).

α-tubulin = test: Western blot in HCT116 cells; assay type: cell-based, human; conditions: 4 μM, overnight, p < 0.01 vs vehicle
Protocol: (§2) HCT116 cells were lysed to obtain cytoplasmic and nuclear protein fractions, according to the protocol used in previous publications (Alhadidi and Shah, [2017]). Briefly, the cells were seeded in and incubated with 15k for overnight at 4μM. The cells were washed using ice-cold PBS and scraped using a cell scraper and collected in 15ml tubes. The cells were centrifuged and the PBS was discarded and replaced with 400 μl of buffer A (10 mM HEPES, pH 7.9, 0.1 mM EDTA, 0.1 mM EGTA, 10 mM KCl, 1 mM dithiothreitol, and 0.5 mM phenylmethylsulfonyl fluoride) in each tube. The cells were allowed to swell under in the buffer for 15 min on ice. Subsequently, 0.1% Nonidet P-40 was added to each suspension for 1 min to disturb the plasma membrane. The nuclei were precipitated by centrifugation at 13,000 rpm for 1 min at 4°C. The cytoplasmic proteins were collected in the supernatant and stored at −80°C. Two hundred μl of Buffer B (20 mM HEPES, pH 7.9, 1 mM EDTA, 1 mM EGTA, 400 mM NaCl, 1 mM dithiothreitol, and 1 mM phenylmethylsulfonyl fluoride) was added to the pellets and left for 30 min on ice with periodic mixing. The samples were centrifuged at 13,000 rpm for 15 min at 4°C to obtain the nuclear fraction (supernatant). The bicinchoninic acid (BCA) quantification assay was used to determine the concentration of protein in the cell extracts. The Western blot was done as previously described (Tiwari et al., [2013]). Rabbit α-tubulin, 1:4,000 dilution, rabbit Bax (1:1,000), rabbit BAK (1:1,000), rabbit β-Catenin (1:4,000), rabbit DVL3 (1:4,000), mouse β-actin (1:5,000), E-cadherin (1:4,000), and N-cadherin (1:4,000), antibodies were used. Membranes were then washed and incubated for 1 h with horseradish peroxidase-labeled (HRP) anti-rabbit and anti-mouse secondary antibodies (1:5,000 dilutions). ChemiDoc Imaging Systems from Bio-Rad, (Hercules, California USA) was used to detect the blots. Finally, proteins were quantified using the image J software. Data were calculated as ratios to β-actin.

Bcl-2 = test: Western blot in HCT116 cells; assay type: cell-based, human; conditions: 4 μM, overnight, p < 0.05
Protocol: as §2

E-cadherin = test: Western blot in HCT116 cells; assay type: cell-based, human; conditions: 4 μM, overnight
Protocol: as §2

cyclin B1 = test: Western blot in HCT116 cells; assay type: cell-based, human; conditions: 4 μM, p < 0.01
Protocol: as §2

Bak = test: Western blot in HCT116 cells; assay type: cell-based, human; conditions: 4 μM, overnight
Protocol: as §2

c-Myc = test: Western blot in HCT116 cells; assay type: cell-based, human; conditions: 4 μM, p < 0.01 vs control
Protocol: as §2

caspase 3 = test: Western blot in HCT116 cells; assay type: cell-based, human; conditions: 4 μM, p < 0.05 vs control
Protocol: as §2

DVL3 = test: Western blot in HCT116 cells; assay type: cell-based, human; conditions: 4 μM, p < 0.01 vs vehicle
Protocol: as §2

HCT116 = test: MTT assay; assay type: cell-based, human; conditions: Homo sapiens, HCT-116, MTT
Protocol: (§3) The 3-(4,5-dimethylthiazol-2-yl)-2,5-diphenyltetrazolium bromide (MTT) assay was used to determine the sensitivity of the different CRC cells to the novel silybin derivatives (Hussein et al., [2017]; Manivannan et al., [2017]). The cells were seeded at a density of 4,000–5,000 cells/well in 96 well plates and incubated with serial dilutions of the compounds (0, 0.1, 0.3, 1, 3, 10, 30, and 100 μM). The MTT dye (4 mg/ml) was added after 72 h of incubation and incubated with the cells for an additional 4 h at 37°C. Following incubation, the media was discarded and the formazan crystals were dissolved by adding 100 μL of DMSO to each well. A DTX 880 multimode detector (Beckman Coulter Life, Indianapolis IN, USA) was used to determine the absorbance readings at a wavelength of 570 nm. The IC50 values were determined based on 3 separate experiments, with each experiment done in triplicate. The selectivity of the compounds was determined by comparing their cytotoxicity for CRC to normal epithelial cell lines (CHO, and CRL1459).

LOVO = test: MTT assay; assay type: cell-based; conditions: Homo sapiens, 72 h incubation, mean ± SD of three experiments, read-out: IC50 ± SD, Colon LOVO
Protocol: as §3

S1 = test: MTT assay; assay type: cell-based; conditions: Homo sapiens, 72 h incubation, mean ± SD of three experiments, read-out: IC50 ± SD, Colon S1
Protocol: as §3

IC50 (HCT116; 72 h incubation, mean ± SD of three experiments, read-out: IC50 ± SD, Colon HCT116): 0.9 µM
IC50 (HCT116; comparison with knockout cells, read-out: IC50, HCT116 wild type): 0.89 µM
IC50 (LOVO): 2.3 ± 0.2 µM
Compound: O=C(/C=C/c1cccc(OCc2ccccc2)c1)c1ccc(O)cc1 [Compound 15k]
colony formation rate (HCT116 cells): decreased significantly
total PARP (PARP): significantly reduced
nuclear β-catenin full-length protein (p1 and p2) (β-catenin): induced the cleavage of the full-length protein
cell migration, wound closure (LOVO cells): migrated significantly slower
expression of α-tubulin (α-tubulin): significant decrease
levels of Bcl-2 (Bcl-2): significantly decreased
E-cadherin expression (Western blot) (E-cadherin): not significantly altered
expression levels of cyclin B1 (cyclin B1): significant increase
Bak levels (Bak): no significant effect
levels of c-Myc protein (c-Myc): significant decrease
cleavage of total caspase 3 (caspase 3): induced the cleavage of total caspase
levels of DVL3 (DVL3): significantly decreased
IC50 (S1): 1.9 ± 0.9 µM
